Data from publication PMC9313566 (Basic & Clinical Pharmacology & Toxicology, 2022).

Molecular target: haemoglobin (Hb) (Homo sapiens, UniProt P68871+P69905)
Experiment: SPR
Assay type: binding

haemoglobin (Hb), sequence (P69905 2-142): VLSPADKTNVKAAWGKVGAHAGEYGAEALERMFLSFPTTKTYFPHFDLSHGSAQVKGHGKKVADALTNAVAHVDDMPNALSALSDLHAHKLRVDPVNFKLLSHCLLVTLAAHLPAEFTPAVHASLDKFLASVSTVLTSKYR
haemoglobin (Hb), sequence (P68871 2-147): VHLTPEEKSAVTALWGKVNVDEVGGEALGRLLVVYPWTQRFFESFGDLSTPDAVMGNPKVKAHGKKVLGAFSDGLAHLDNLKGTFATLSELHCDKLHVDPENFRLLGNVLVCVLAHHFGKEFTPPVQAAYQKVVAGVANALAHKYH

Row | Kd [µM] | SMILES
1 | 75.4 | CC(C)=C1C/C=C(\C)CC/C=C(\C)CC1=O [germacrone]
2 | 2.27 | C=C[C@]1(C)CC[C@@H](C(=C)C)C[C@H]1C(=C)C [β-elemene]
3 | 3.8 | C/C1=C\CC[C@H](C)C(=O)C[C@@H](C(C)C)C(=O)C1 [curdione]
4 | 18.2 | C/C1=C\Cc2c(C)coc2C/C(C)=C/CC1 [furanodiene]
